# Experimental data taken from patent publication US20160159861A1, “APJ Receptor Compounds” (priority 2013, published 2016).
# Read-outs that look alike come from different tables or passages of the source. Peptide text beside a SMILES is read from it.
# Legend:
# Type in all cases: cell-based
# [1] = biological target: T1, human APJ receptor (hAPJ) (Homo sapiens, UniProt P35414); assay: HTRF cAMP assay: inhibition of NKH477-stimulated cAMP in HEK cells stably expressing hAPJ; details: for Emax: HEK293, read-out: % IA, bound stated; for % IA (cAMP inhibition, hAPJ HEK): intrinsic activity; for Ranking: composite class of EC50 (hAPJ), % IA and % histamine or formal (+) charge; for inhibition of NKH477-stimulated increase in cAMP, dose dependent: concentration response curves, FIGS. 1 and 2, HEK cells stably expressing APJ
# T1 construct: expressed in transfected cells
# T1 sequence (P35414 1-380): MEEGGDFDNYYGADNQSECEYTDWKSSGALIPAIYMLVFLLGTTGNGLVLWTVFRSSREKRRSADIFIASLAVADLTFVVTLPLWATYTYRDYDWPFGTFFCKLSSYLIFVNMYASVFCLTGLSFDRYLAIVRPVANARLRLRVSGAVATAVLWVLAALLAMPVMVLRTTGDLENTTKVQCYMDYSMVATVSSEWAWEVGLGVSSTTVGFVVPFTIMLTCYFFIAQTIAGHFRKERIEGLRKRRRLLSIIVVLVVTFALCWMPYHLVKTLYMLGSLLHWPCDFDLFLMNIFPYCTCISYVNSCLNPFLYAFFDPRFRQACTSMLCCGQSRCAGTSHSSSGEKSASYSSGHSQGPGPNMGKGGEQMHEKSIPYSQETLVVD
# How it was run: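 HEK cells stably expressing hAPJ, induced with 1 nG/mL doxycycline and seeded overnight at 40 k/well. cAMP read by HTRF competitive immunoassay using cryptate-labeled anti-cAMP antibody and d2-labeled cAMP.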
# rat peritoneal cells = assay: Ex vivo histamine release assay in rat peritoneal cells (vs. Compound 48/80)
# How it was run: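 Resident peritoneal cells were lavaged from male Sprague Dawley rats and kept in HBSS/20 mM HEPES/0.2% BSA at 25,000 cells/well. They were exposed for 30 min at room temperature to compound at 3 points (100, 10, 1 μM DMSO stocks, 1% DMSO final). Released histamine was measured by HTRF and normalised to total histamine after Triton lysis. Compound 48/80 was the reference.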
# APJ receptor [2] = biological target: T2, APJ receptor (Homo sapiens, UniProt P35414); assay: DiscoveRx PathHunter β-arrestin recruitment assay; details: for β-arrestin recruitment: dose dependent chemiluminescence, FIGS. 3A-3B; for Emax: read-out: β-arrestin Signaling Max Response
# T2 sequence (P35414 1-380): T1 sequence (P35414 1-380)
# Source text: Activation of the β-Arrestin signaling pathway was monitored using the commercially available DiscoveRx PathHunter® assay. This assay employs a homogenous, non-imaging assay format called Enzyme Fragment Complementation (EFC) using β-galactosidase (β-Gal) as the functional reporter. […] EA is fused to β-Arrestin and ED is fused to the GPCR of interest. When the GPCR is activated and β-Arrestin is recruited to the receptor, ED and EA complementation occurs, restoring βGal activity which is measured using chemiluminescent PathHunter® Detection Reagent.
# CXCR4 receptor = CXCR4 receptor (Homo sapiens, UniProt P61073); assay: Activity at CXCR4 receptor (selectivity, Gi-coupled GPCR); details: FIGS. 6A-6C, selectivity vs. hAPJ
# CXCR4 receptor, sequence (P61073 whole entry): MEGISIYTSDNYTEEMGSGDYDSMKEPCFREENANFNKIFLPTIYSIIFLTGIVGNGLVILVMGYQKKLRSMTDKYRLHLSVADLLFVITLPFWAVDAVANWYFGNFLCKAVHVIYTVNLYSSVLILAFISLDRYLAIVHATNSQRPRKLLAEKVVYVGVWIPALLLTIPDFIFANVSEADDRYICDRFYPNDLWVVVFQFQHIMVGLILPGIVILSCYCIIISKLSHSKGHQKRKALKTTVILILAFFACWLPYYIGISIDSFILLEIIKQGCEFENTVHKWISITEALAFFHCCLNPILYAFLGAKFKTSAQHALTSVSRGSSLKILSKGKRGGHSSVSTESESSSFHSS
# APJ receptor [3] = biological target: T2, APJ receptor; assay: Cellul'erk ERK phosphorylation assay in APJ-TREX cells; set-up: expressed in transfected cells; host or cells: Human TRex (APJ-TREX) cells, doxycycline-inducible expression; details: relative to max pyr-apelin-13 activity at 100 nM; 3 or 0.3 μM compound, 5 minutes
# Method: Experiments were performed to test activation of the ERK and p38 pathways using the Cellul'erk and the Phospho-p38 MAPK (Thr180/Tyr182) assay kits (Cisbio). APJ-TREX cells were optimized for signaling (pre-serum starved overnight with low FBS serum (2% FBS media) with 1 ng/ml doxycyclin (for induction of APJ receptor expression), 50,000 cells, 5 minutes agonist activation for ERK activity). Cells were pretreated with 3 or 0.3 μM pepducin compound for 5 minutes and the reaction was stopped by lysis buffer. Lysates are then transferred to the assay plate for the detection of phosphorylated ERK or p38 by HTRF reagents.
# [4] = EC50 (cAMP inhibition, hAPJ HEK), Table 6, hAPJ HEK cells, NKH477-stimulated cAMP
# [5] = EC50 (hAPJ), inhibition of cAMP production, bound stated, HTRF cAMP Assay, per data of Table 6
# [6] = HTRF cAMP Assay, per data of Table 6
# [7] = histamine release from rat peritoneal cells relative to Compound 48/80
# [8] = HTRF cAMP Assay, per data of Table 6, read-out: EC50 (hAPJ), inhibition of cAMP production, bound stated
# [9] = Table 6, hAPJ HEK cells, NKH477-stimulated cAMP, read-out: EC50 (cAMP inhibition, hAPJ HEK)
"inhibition of NKH477-stimulated increase in cAMP, dose dependent [1]","EC50 [1, 8]","EC50 [1, 9]",activity at the CXCR4 receptor (CXCR4 receptor),Histamine (% vs. 48/80) (rat peritoneal cells),"EC50 (APJ receptor [2]; PathHunter chemiluminescence, read-out: β-arrestin Signaling EC50)",Structure (SMILES),"EC50 [1, 4]","EC50 [1, 5]","Emax [1, 6]","% IA (cAMP inhibition, hAPJ HEK) ([1]; Table 6, hAPJ HEK cells)",Ranking [1],Histamine (% vs. 48/80) (rat peritoneal cells; [7]),EC50 (APJ receptor [2]),β-arrestin recruitment (APJ receptor [2]),Emax (APJ receptor [2]),Average % Activity (ERK agonist activity) (APJ receptor [3])
inhibited,≤ 25 nM,8 nM,lack of dose-responsive activity,–,–,CCCCCCCCCCCCCCCC(=O)N[C@H](C(=O)N[C@H](C(=O)N[C@@H](Cc1ccccc1)C(=O)N[C@@H](CCCNC(=N)N)C(=O)N[C@@H](CO)C(=O)N[C@@H](CCC(=O)O)C(=O)N[C@H](CCCCN)C(=O)N[C@@H](CCCNC(=N)N)C(=O)N[C@@H](CCCNC(=N)N)C(=O)N[C@@H](CO)C(=O)N[C@@H](C)C(=O)N[C@@H](CC(=O)O)C(=O)N[C@@H](CCC(N)=O)C(=O)N[C@@H](Cc1ccccc1)C(=O)N[C@H](C(N)=O)[C@@H](C)CC)C(C)C)[C@@H](C)O [Compound 14] (HELM PEPTIDE1{[CCCCCCCCCCCCCCCC(=O)[*:2]].T.V.F.R.S.E.[dK].R.R.S.A.D.Q.F.I.[am]}$$$$V2.0),–,–,≥ 80%,87%,"**** (EC50≦25 nM (hAPJ), % IA≧80% and either % histamine>35% or formal (+) charge>1)",–,–,–,–,58.2%
inhibited,≤ 25 nM,15 nM,lack of dose-responsive activity,–,–,CCCCCCCCCCCCCCCC(=O)N[C@H](C(=O)N[C@H](C(=O)N[C@@H](Cc1ccccc1)C(=O)N[C@@H](CCCNC(=N)N)C(=O)N[C@@H](CO)C(=O)N[C@@H](CO)C(=O)N[C@@H](CCC(=O)O)C(=O)N[C@H](CCCCN)C(=O)N[C@@H](CCCNC(=N)N)C(=O)N[C@@H](CCCNC(=N)N)C(=O)N[C@@H](CO)C(=O)N[C@@H](C)C(=O)N[C@@H](CC(=O)O)C(=O)N[C@@H](CC(N)=O)C(=O)N[C@@H](Cc1ccccc1)C(=O)N[C@H](C(N)=O)[C@@H](C)CC)C(C)C)[C@@H](C)O [Compound 18] (HELM PEPTIDE1{[CCCCCCCCCCCCCCCC(=O)[*:2]].T.V.F.R.S.S.E.[dK].R.R.S.A.D.N.F.I.[am]}$$$$V2.0),–,–,≥ 80%,117%,"**** (EC50≦25 nM (hAPJ), % IA≧80% and either % histamine>35% or formal (+) charge>1)",–,–,–,–,–
inhibited,≤ 25 nM,11 nM,–,73%,59.6 nM,CCCCCCCCCCCCCCCC(=O)N[C@H](C(=O)N[C@H](C(=O)N[C@@H](Cc1ccccc1)C(=O)N[C@@H](CCCNC(=N)N)C(=O)N[C@@H](CO)C(=O)N[C@@H](CO)C(=O)N1CCC[C@H]1C(=O)N[C@@H](CCC(=O)O)C(=O)N[C@H](CCCCN)C(=O)N[C@@H](CCCNC(=N)N)C(=O)N[C@@H](CCCNC(=N)N)C(=O)N[C@@H](CO)C(=O)N[C@@H](C)C(=O)N[C@@H](CC(=O)O)C(=O)N[C@H](C(=O)N[C@@H](Cc1ccccc1)C(=O)N1CCC[C@H]1C(N)=O)[C@@H](C)CC)C(C)C)[C@@H](C)O [Compound 26] (HELM PEPTIDE1{[CCCCCCCCCCCCCCCC(=O)[*:2]].T.V.F.R.S.S.P.E.[dK].R.R.S.A.D.I.F.P.[am]}$$$$V2.0),–,–,≥ 80%,105%,"**** (EC50≦25 nM (hAPJ), % IA≧80% and either % histamine>35% or formal (+) charge>1)",–,–,weakly engaged,46%,–
–,–,–,–,–,–,CCCCCCCCCCCCCCCC(=O)N1CCC[C@H]1C(=O)N[C@H](C(=O)N[C@H](C(=O)N[C@@H](Cc1ccccc1)C(=O)N[C@@H](CCCNC(=N)N)C(=O)N[C@@H](CO)C(=O)N1CCC[C@H]1C(=O)N[C@@H](CO)C(=O)N[C@@H](CCC(=O)O)C(=O)N[C@H](CCCCN)C(=O)N[C@@H](CCCNC(=N)N)C(=O)N[C@@H](CCCNC(=N)N)C(=O)N[C@@H](CO)C(=O)N[C@@H](C)C(=O)N[C@@H](CC(=O)O)C(=O)N[C@H](C(=O)N[C@@H](Cc1ccccc1)C(=O)N[C@H](C(N)=O)[C@@H](C)CC)[C@@H](C)CC)C(C)C)[C@@H](C)O [Compound 3] (HELM PEPTIDE1{[CCCCCCCCCCCCCCCC(=O)[*:2]].P.T.V.F.R.S.P.S.E.[dK].R.R.S.A.D.I.F.I.[am]}$$$$V2.0),13 nM,≤ 25 nM,≥ 80%,90%,"**** (EC50≦25 nM (hAPJ), % IA≧80% and either % histamine>35% or formal (+) charge>1)",64%,8.2 nM,weakly engaged,11%,–

Structure (SMILES),"inhibition of NKH477-stimulated increase in cAMP, dose dependent [1]","EC50 [1, 8]","EC50 [1, 9]",activity at the CXCR4 receptor (CXCR4 receptor),Histamine (% vs. 48/80) (rat peritoneal cells),"EC50 (APJ receptor [2]; PathHunter chemiluminescence, read-out: β-arrestin Signaling EC50)","EC50 [1, 4]","EC50 [1, 5]","Emax [1, 6]","% IA (cAMP inhibition, hAPJ HEK) ([1]; Table 6, hAPJ HEK cells)",Ranking [1],Histamine (% vs. 48/80) (rat peritoneal cells; [7]),EC50 (APJ receptor [2]),β-arrestin recruitment (APJ receptor [2]),Emax (APJ receptor [2]),Average % Activity (ERK agonist activity) (APJ receptor [3])
CCCCCCCCCCCCCCCC(=O)N[C@H](C(=O)N[C@H](C(=O)N[C@@H](Cc1ccccc1)C(=O)N[C@@H](CCCNC(=N)N)C(=O)N[C@@H](CO)C(=O)N[C@@H](CO)C(=O)N[C@@H](CCC(=O)O)C(=O)N1CCC[C@H]1C(=O)N[C@H](CCCCN)C(=O)N[C@@H](CCCNC(=N)N)C(=O)N[C@@H](CCCNC(=N)N)C(=O)N[C@@H](CO)C(=O)N[C@@H](C)C(=O)N[C@@H](CC(=O)O)C(=O)N[C@H](C(=O)N[C@@H](Cc1ccccc1)C(=O)N[C@H](C(N)=O)[C@@H](C)CC)[C@@H](C)CC)C(C)C)[C@@H](C)O [Compound 27] (HELM PEPTIDE1{[CCCCCCCCCCCCCCCC(=O)[*:2]].T.V.F.R.S.S.E.P.[dK].R.R.S.A.D.I.F.I.[am]}$$$$V2.0),inhibited,–,–,–,–,–,7 nM,≤ 25 nM,≥ 80%,105%,"**** (EC50≦25 nM (hAPJ), % IA≧80% and either % histamine>35% or formal (+) charge>1)",67%,8.1 nM,weakly engaged,23.7%,–
CCCCCCCCCCCCCCCC(=O)N[C@H](C(=O)N[C@H](C(=O)N[C@@H](Cc1ccccc1)C(=O)N[C@@H](CCCNC(=N)N)C(=O)N[C@@H](CO)C(=O)N[C@@H](CO)C(=O)N1CCC[C@H]1C(=O)N[C@@H](CCC(=O)O)C(=O)N[C@H](CCCCN)C(=O)N[C@@H](CCCNC(=N)N)C(=O)N[C@@H](CCCNC(=N)N)C(=O)N[C@@H](CO)C(=O)N[C@@H](C)C(=O)N[C@@H](CC(=O)O)C(=O)N[C@H](C(=O)N[C@@H](Cc1ccccc1)C(=O)N[C@H](C(N)=O)[C@@H](C)CC)[C@@H](C)CC)C(C)C)[C@@H](C)O [Compound 25] (HELM PEPTIDE1{[CCCCCCCCCCCCCCCC(=O)[*:2]].T.V.F.R.S.S.P.E.[dK].R.R.S.A.D.I.F.I.[am]}$$$$V2.0),inhibited,–,–,–,–,–,15 nM,≤ 25 nM,≥ 80%,138%,"**** (EC50≦25 nM (hAPJ), % IA≧80% and either % histamine>35% or formal (+) charge>1)",51%,3.1 nM,weakly engaged,12.6%,25.5%
